US20200010910A1, “Cytotoxic Chemotherapy-Based Predictive Assays for Acute Myeloid Leukemia” (The Regents of The University of California, priority 2017, published 2020)
“And” between values parts separate entries of the source, which are not always exact repeats. Equal entries are not always repeated.

Columns and labels:
[1] = test system: A549 tumor xenografts; assay: DNA repair: monoadducts remaining in excised xenograft tumor; assay type: in vivo, mice; conditions: tumor excised 4 h after microdose, 8 hours in carboplatin-free medium
Procedure: (§1) DNA repair rates in the xenograft tumor cells were also observed to correlate with carboplatin resistance. This is exemplified by the measurement of DNA repair in the A549 and H232A tumor xenografts (FIG. 10D). Four hours after a microdose was administered to three mice each with A549 and H232A tumor xenografts, the animals were sacrificed and tumors were excised. Tissue from each tumor was minced with a scalpel and washed with PBS. Half of the sample was frozen immediately (control) and half was incubated in cell culture medium (no carboplatin) for 8 hours prior to storage. DNA was extracted from the two sets of experiments and analyzed for carboplatin-DNA monoadducts. The resistant A549 cell line had 4±3% of the carboplatin-DNA monoadducts remaining compared to the control, whereas 56±8% of the monoadducts persisted for the drug sensitive H23 cells.

[2] = test system: H232A tumor xenografts; assay: as above; assay type: in vivo, mice; conditions: H23; tumor excised 4 h after microdose, 8 hours in carboplatin-free medium
Procedure: as §1

[3] = test system: Tumor Tissue; assay: microdose-induced carboplatin-DNA monoadducts in patients; assay type: in vivo, human
Procedure: Based upon the previous mouse studies that identified a minimal microdose for accurate AMS analysis of carboplatin monoadducts (1% of therapeutic carboplatin containing 50,000 DPM/gm of mouse body weight), the first in-human evaluation of microdose [^14C]carboplatin was conducted at this same equivalent formulation. The mouse radioactive dose (50,000 DPM/gm), adjusted for body surface area differences between mouse and humans, is equivalent to a dose of 1.0×10^7 DPM/kg of human body weight. The carboplatin dose for human chemotherapy is personalized to a patient's size and kidney function and is calculated using the Calvert formula with an AUC of 6 (Calvert, A. H., et al. “Carboplatin dosage: prospective evaluation of a simple formula based on renal function.” Journal of Clinical Oncology 7.11 (1989): 1748-1756). […] After blood collection, the BD Vacutainer CPT™ tubes were gently inverted several times to ensure mixing with heparin anticoagulant. The tubes were immediately placed on ice or stored at 4° C. and_then processed within 2 hours of collection to separate plasma and PBMC. For processing, the blood filled BD Vacutainer CPT™ tubes were centrifuged at room temperature in a horizontal rotor for 25 minutes at 1600×g. The top plasma layer was transferred to separate tubes and stored at or below −70° C. After most of the plasma was removed from the CPT tube, PBMC were transferred to another tube and washed three times with ice-cold phosphate-buffered solution (PBS). After pelleting the cells and removing the supernatant, the PBMC's were stored frozen at −80° C. until being processed to isolate DNA for determination of the carboplatin-DNA monoadduct frequency. […]
As we have shown in cell culture and mouse tumor xenograph experiments, the carboplatin-DNA monoadduct frequency is proportional to the dose and time integrated exposure to carboplatin. […] DNA from PBMC and tumor tissue was extracted and analyzed by AMS for carboplatin-DNA monoadduct frequency. […]

N.N.O=C([O-])C1(C(=O)[O-])CCC1.[Pt+2] [carboplatin]
carboplatin-DNA monoadducts remaining compared to the control [1]: 4±3%
carboplatin-DNA monoadducts remaining compared to the control [2]: 56±8%
24 h adducts Tumor ([3]; Bladder cancer, individual patients): 20.2 per 10^8 nt and 14.8 per 10^8 nt and 5.37 per 10^8 nt and 3.13 per 10^8 nt and 0.31 per 10^8 nt and 42.5 per 10^8 nt and 8.79 per 10^8 nt and 0.923 per 10^8 nt
24 h adducts Tumor ([3]; Hodgkin patient): 4.58 per 10^8 nt
24 h adducts Tumor ([3]; NSCLC, individual patients): 0.87 per 10^8 nt and 0.66 per 10^8 nt and 1.3 per 10^8 nt
